The structures appear in SMILES notation.

Data set [1] concerns the target T1, CYP3A4 (Homo sapiens, UniProt P08684). In words: Spectral binding (equilibrium) titrations of CYP3A4. As to conditions: for Kd: human, CYP3A4 protein solution (2 μM), sigmoidal (Hill) fit.
Description: (§1) Equilibrium titrations of CYP3A4 were conducted in a Cary 300 spectrophotometer at ambient temperature in 0.1 M phosphate, pH 7.4. […] The binding parameters were determined from fittings to the plot of the absorbance change (peak-to-trough separations in the difference spectra; ΔA) vs ligand concentration.
The target in data set [2] is T1, CYP3A4. As to conditions: pH 7.4.
Description: as §1

T1 sequence (P08684 with tags, fused parts or gaps): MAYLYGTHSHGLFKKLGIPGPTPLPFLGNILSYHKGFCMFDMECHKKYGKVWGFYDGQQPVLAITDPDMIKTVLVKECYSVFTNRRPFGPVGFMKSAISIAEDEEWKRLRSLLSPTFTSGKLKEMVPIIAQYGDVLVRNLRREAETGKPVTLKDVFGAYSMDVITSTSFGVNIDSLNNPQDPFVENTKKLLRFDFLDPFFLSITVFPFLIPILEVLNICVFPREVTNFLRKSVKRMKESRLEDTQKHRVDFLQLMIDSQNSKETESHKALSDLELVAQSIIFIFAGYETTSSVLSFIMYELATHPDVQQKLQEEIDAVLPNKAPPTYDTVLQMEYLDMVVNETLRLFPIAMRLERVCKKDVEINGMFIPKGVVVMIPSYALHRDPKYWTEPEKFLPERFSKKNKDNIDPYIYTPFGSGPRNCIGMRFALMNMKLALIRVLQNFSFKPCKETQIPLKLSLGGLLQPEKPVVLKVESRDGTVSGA

Turning to `Cc1ncc2n1-c1ccc(Cl)cc1C(c1ccccc1F)=NC2` [Midazolam], the “decrease of binding affinity for WT CYP3A4 in the presence of TEG” value at CYP3A4 [1] (15 mM TEG vs no TEG) was 30%.

What is called Kd is the constant that tells how readily two partners part at equilibrium. A high value points to lower affinity. Take `CC(=O)[C@H]1CC[C@H]2[C@@H]3CCC4=CC(=O)CC[C@]4(C)[C@H]3CC[C@]12C` [Progesterone]: at CYP3A4 [2], the “nH (Hill coefficient)” value is reported as 1.6 ± 0.1. In addition, the Kd amounted to 16 ± 2 µM at CYP3A4 [1] (pH 7.4, S50, 15 mM TEG) and 17 ± 1 µM at CYP3A4 [1] (pH 7.4, S50, no TEG).
